From the METLIN SMRT retention time set (Domingo-Almenara et al. 2019)

Assay: gradient 5% acetonitrile 3 min, to 50% in 2 min, to 85% in 15 min, held 3 min, 100 µL/min
Settings: column: Zorbax Extend-C18 2.1 x 50 mm; eluents: water / acetonitrile, 0.1% formic acid
How it was run: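 Retention times come from adduct peaks that were picked computationally and then checked by hand. The standards, pure and pooled in mixtures of ~100 molecules, were run on a Zorbax Extend-C18 column (2.1 × 50 mm, 1.8 μm) at 100 μL/min with water and acetonitrile, each with 0.1% formic acid. Detection was by quadrupole time-of-flight mass spectrometry in positive and negative ionization mode, with a dead volume of 40 μL and a dwell volume of 900 μL.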

Row | Structure (SMILES) | RP-LC retention time
1 | CCN(CC)C(=O)Cn1c(=O)c2cnc(-c3ccc(Cl)cc3)nc2n(CC)c1=O | 740 s
2 | COc1ccc(S(=O)(=O)N2CCC(CN3CCC(C)CC3)CC2)cc1 | 655 s
3 | O=C(NCc1ccccc1)c1c(O)c2cccnc2n(Cc2ccccc2)c1=O | 1370 s
4 | Cc1cc2cc(CNC(=O)C(=O)c3c(C)[nH]c4ccccc34)ccc2[nH]1 | 1010 s
5 | Cn1c(=O)n(C)c2cc(Nc3cc(N4CCOCC4)ncn3)ccc21 | 566 s
6 | CCc1nnc2ccc(NCC3CCCO3)nn12 (stereo not given) | 646 s
7 | CCC1CN2C=Nc3oc(C)c(C(=O)Nc4cccc(Cl)c4)c3C2=N1 (stereo not given) | 695 s
8 | CN(CC1CCOC1)C(=O)c1ccc(F)c(F)c1 (stereo not given) | 683 s
9 | O=C1[C@@H]2Cc3c([nH]c4ccccc34)C(CCc3ccccc3)N2C(=O)CN1Cc1ccco1 (stereo not given in full) | 1000 s
10 | COc1cc(-c2noc(-c3ncn4c3COC(c3ccc(F)cc3)C4)n2)cc(OC)c1OC (stereo not given) | 976 s
11 | O=c1c(=O)n(-c2ccccc2)ccn1Cc1nc(-c2cccc(Br)c2)no1 | 885 s
12 | CCCNC(=O)N1CCCN(C2=NS(=O)(=O)C(c3cccc(Cl)c3)=C2C)CC1 | 775 s
13 | Cc1cccc(-n2c(=O)c3c(cc(C)n3C)n(CC(=O)Nc3cccc(Br)c3)c2=O)c1 | 962 s
14 | Cn1c(=O)c(N2CCN(C(=O)c3cc(Cl)ccc3F)CC2)nc2ccncc21 | 560 s
15 | CCCc1nc(-c2c(C)cc(C)nc2NC(=O)c2cc(F)cc(F)c2)no1 | 938 s
16 | Cc1cc(C)cc(NC(=O)NCC2CCOCC2)c1 | 752 s
17 | Cc1cc(C)cc(NC(=O)C2CCc3sc(C(=O)N4CCOCC4)cc3C2)c1 (stereo not given) | 856 s
18 | Cc1cccc(Nc2ncccc2S(N)(=O)=O)c1 | 811 s
19 | CSc1ccc(CC(=O)Nc2nnc(-c3cc(C)n(C)n3)o2)cc1 | 669 s
20 | COc1cccc2sc(N(CCCN(C)C)C(=O)c3cccc(C(F)(F)F)c3)nc12 | 622 s
21 | CC1=C(c2ccc(F)cc2)S(=O)(=O)N=C1N1CCCN(C(=O)CC(C)(C)C)CC1 | 856 s
22 | O=S(=O)(c1cccn2cnnc12)N(Cc1cccc(F)c1)c1ccc(F)c(F)c1 | 866 s
23 | COCCC1(NC(=O)c2ccoc2)CCN(CC2CC2)CC1 | 581 s
24 | CCOC(=O)C1CCN(C(=O)Cn2nc3c(N4CCCCCC4)nccn3c2=O)CC1 | 652 s
25 | CCOc1cc(=O)n2c(c1C(=O)Nc1cc(F)ccc1Cl)CCCC2 | 822 s

Row | Structure (SMILES) | RP-LC retention time
26 | CCn1ccc2sc(C)c(C(=O)NCc3ccc(C)cc3)c2c1=O | 850 s
27 | Cc1cc(Cl)ccc1NC1=NS(=O)(=O)c2ccccc21 | 834 s
28 | CN1CCn2cc(S(=O)(=O)Nc3cccc(F)c3)cc2C1=O | 687 s
29 | COc1ccc(C(=O)N2CCc3ccc(C(=O)Nc4ccc5c(c4)OCCO5)cc32)cc1 | 868 s
30 | COc1ccc2nc(NC3=NCN(CCc4ccc(OC)c(OC)c4)CN3)nc(C)c2c1 | 709 s
31 | NS(=O)(=O)c1ccc(CNC(=O)C2CN(C(=O)c3ccc(F)c(F)c3)C2)cc1 | 631 s
32 | Cn1cnc2cc(CNC(=O)c3ccc(C#N)cc3)ccc21 | 578 s
33 | CCc1nc(NCc2ccc(OC)c(OC)c2)ncc1C(=O)O | 682 s
34 | Cn1cc(CN2CCC(C(=O)NCCc3ccco3)CC2)c2cc(Cl)ccc21 | 679 s
35 | C[C@@H](NC(=O)c1ccccc1Br)C(=O)NCc1cscn1 | 635 s
36 | Fc1cccc(-c2nc(-c3cn(-c4cccc(F)c4)nn3)no2)c1 | 1090 s
37 | CCc1cc(C(=O)Nc2ccc(Cl)cc2)nc2ccnn12 | 1080 s
38 | O=C(N[C@H]1C[C@@H]2C[C@H]1CN2C(=O)Cc1ccc(OC(F)(F)F)cc1)c1cccs1 | 832 s
39 | CCCOc1nn(CCC)cc1C(=O)NCc1ccccc1Cl | 1010 s
40 | CCn1ccc2c(cc(C(=O)Nc3cc(C)ccc3C)n2C)c1=O | 721 s
41 | O=C(Cn1cccc1-c1nnc(C2CCC2)o1)N1CCN(Cc2ccc3c(c2)OCO3)CC1 | 688 s
42 | CC(=O)N1CCc2ccc(NS(=O)(=O)CCN3C(=O)CCCC3=O)cc21 | 615 s
43 | Cc1ccc(-n2c(-c3ccc(Cl)cc3)cn3c4c(=O)n(C)c(=O)n(C)c4nc23)c(C)c1 | 1110 s
44 | COc1ccc(NC2=NC(C)(CO)CS2)cc1 (stereo not given) | 638 s
45 | Cc1csc(-c2cc(S(=O)(=O)N3CCCCC3)c(C)n2C)n1 | 1040 s
46 | COc1ccc2c(c1)c(CN1CCOCCNC(=O)CC1)cn2C | 598 s
47 | CNC(=O)[C@@H]1CN(S(=O)(=O)c2ccc(Cl)s2)C[C@H]1c1n[nH]c(C)n1 | 656 s
48 | O=C(c1cccnc1)N1CCc2cc(-c3ccno3)ccc21 | 683 s
49 | CCCc1cc(N2CCN(C(=O)C3CCC3)CC2)nc2nnc(C)n12 | 614 s

Further lines, results first:

Row | RP-LC retention time | Structure (SMILES)
50 | 867 s | Cn1nc(-c2nc(Cc3ccccc3)no2)c2c1CCN(C(=O)NC1CCCC1)C2
51 | 991 s | CC1=C(c2ccccc2)S(=O)(=O)N=C1N1CCCN(C(=O)C2CC2)CC1
52 | 900 s | COc1ccccc1NC(=O)Cn1nc2c(Oc3cccc(Cl)c3)nccn2c1=O
53 | 711 s | Cc1cc2c(N3CCCC(C(=O)NCc4ccc(N5CCOCC5)cc4)C3)nccc2s1 (stereo not given)
54 | 574 s | Cc1cccc(Nc2ccc(N3CCN(C(=O)Cc4c[nH]c5ccccc45)CC3)nn2)n1
55 | 832 s | Cc1ccsc1C(=O)NCC(=O)N1CCCc2ccccc21
56 | 736 s | COc1ccc(C2CC(=O)N(CC(=O)N3CCOCC3)c3ccccc3S2)cc1OC (stereo not given)
57 | 1020 s | O=C(O)Cc1sc(Nc2ccc(Br)cc2)nc1-c1ccccc1
58 | 925 s | COc1ccc(CNC(=O)N(c2ccccc2)c2ccccc2)c(OC)c1
59 | 842 s | COc1ccc(C(=O)N2CCCC(COc3ccc(C(=O)NC(C)C)cc3)C2)c(C)c1 (stereo not given)
60 | 1100 s | COC1CN(c2ccc(C)cc2)C12CCN(C(=O)C1(c3ccccc3)CC1)CC2 (stereo not given)
61 | 620 s | COc1ccc(NC(=O)N2C[C@H]3C[C@H](C2)[C@H]2CCCC(=O)N2C3)cc1
62 | 813 s | Cc1cc(N2CCOCC2)nc(N2CCN(S(=O)(=O)c3ccc4c(c3)Cc3ccccc3-4)CC2)n1
63 | 614 s | Cc1nn(C(C)C(=O)NCCCN2CCCC2)c(=O)c2nn(-c3ccccc3)c(C)c12 (stereo not given)
64 | 899 s | Cc1ccc(CNC(=O)C2(C)CCCN(C(=O)Nc3ccc(F)cc3)C2)cc1 (stereo not given)
65 | 772 s | N[C@@H]1CCCN(c2c(/C=C3\SC(=O)NC3=O)cccc2-c2ccccc2)C1
66 | 632 s | O=C(NCCn1cnc2ccccc2c1=O)C1CC(=O)N(c2n[nH]c3ccccc23)C1 (stereo not given)
67 | 691 s | COCCN(C)Cc1ccc(CC2CCN(C(=O)C3(c4ccc(OC)cc4)CC3)CC2)cc1
68 | 568 s | Cc1oc2ncnc(N3CCCCC3)c2c1C(=O)N(CCN(C)C)Cc1ccccc1
69 | 874 s | Cc1ccc(CC(=O)N2CCC3(CC2)N=C(c2ccc(C)cc2)NO3)cc1
70 | 696 s | O=C(CN1CCC2(CC1)N=C(c1ccc(Cl)cc1)C(=O)N2)Nc1cc(F)ccc1F

Row | RP-LC retention time | Structure (SMILES)
71 | 1010 s | Cc1ccc(CNC(=O)c2nc3cccnc3n(CC(C)C)c2=O)cc1
72 | 596 s | CC(C)c1nccn1C1CN(C(=O)COc2ccccc2)C1
73 | 606 s | Cc1ccc(S(=O)(=O)Cc2ccc(C(=O)N3CCN(c4ccccn4)CC3)o2)cc1
74 | 1090 s | O=C(N[C@H](Cc1ccccc1)C(=O)NCc1cscn1)c1ccc(F)cc1
75 | 908 s | O=C(Cn1c(-c2cccs2)cc2ccccc21)N1CCN(C(=O)c2ccco2)CC1
76 | 951 s | Cn1c(=O)c(N2CCN(C(=O)C3(c4ccccc4)CC3)CC2)nc2ccccc21
77 | 669 s | CC(C(=O)N1CCN(Cc2ccc3c(c2)OCO3)CC1)n1c2ccccc2c2cnn(C)c(=O)c21 (stereo not given)
78 | 965 s | O=C(NCCc1ccccc1)NCc1cccn1Cc1ccc(F)cc1
79 | 601 s | CCCNC(=O)N1CCN(c2cc(-c3ccc(OC)c(OC)c3)ncn2)CC1
80 | 1040 s | COc1ccccc1-c1nc(Cc2noc(-c3ccccc3)n2)c(C)o1
81 | 643 s | O=C(Cn1c(N2CCCCC2)nc2ccccc2c1=O)N1CCN(c2ccccn2)CC1
82 | 641 s | COCCOC1CN(C2CCN(C(=O)Nc3ccccc3)CC2)C12CCCCC2 (stereo not given)
83 | 632 s | Cc1ccc(-c2nnc(N3CCC(C(=O)NCCN4CCCCCC4)CC3)o2)cc1
84 | 707 s | CCN1C(=O)C2(CCN(C(C)=O)CC2)c2ccccc21
85 | 924 s | O=C(C1=CN(c2ccc(Br)cc2)c2cc(Cl)ccc2S1(=O)=O)N1CCOCC1
86 | 619 s | COc1ccccc1NC(=O)CSCC(=O)N1CCC(C(N)=O)CC1
87 | 961 s | CCN(C(=O)CN1C(=O)CCCc2cc(S(=O)(=O)N3CCCCC3)ccc21)c1ccc(OC)cc1
88 | 932 s | CN(CCc1noc(-c2ccc(Cl)cc2)n1)C(=O)NCc1ccccc1
89 | 1030 s | COc1ccc(N2CC(c3noc(-c4ccc(C)c(C)c4)n3)CC2=O)cc1 (stereo not given)
90 | 877 s | Cc1c(C(=O)N2CCCC2)cnn1-c1ccc(-c2nc(C3CC3)no2)cn1
